Values quoted from earlier work, collected in patent US20260226377A1, “BIODEGRADABLE MICROCAPSULES CONTAINING LOW LOG P FRA-GRANCE” (priority 2023, published 2026).

Conditions: octanol/water; source of values not stated (b29 refers to reported values, Pomona92 database)

For `O=Cc1ccccc1` [benzaldehyde], the logP value is given as 1.70.
